# Measured values published in patent EP4692088A1, “COMPOUND ACTING AS WRN HELICASE INHIBITOR” (SHANGHAI JEYOU PHARMACEUTICAL CO., LTD., priority 2023, dated 2024).
# Where two headings read alike, the source gives them in different places.
# Columns and labels:
# [1] = test system: HCT116 cells; test: Cell proliferation assay (CellTiter-Glo), HCT116; assay type: cell-based; details: Homo sapiens, 120 h, HCT-116, 5 days incubation
# Procedure: (§1) SW48 cells were plated at a density of 1,500 cells/well, and LoVo, HCT116, and SW620 cells were plated at a density of 800 cells/well in a 96-well cell culture plate, and cultured in a 37°C incubator overnight. The test compounds, which were gradient-diluted with DMSO, were added, and after incubation for 5 days, cell viability was detected using a CellTiter-Glo kit. The CellTiter-Glo reagent was equilibrated to room temperature, and an appropriate amount was added to the cell plate, followed by shaking at room temperature for 12 min. The luminescence signal was detected using a microplate reader.
# (§2) The luminescence signal values of the DMSO-treated wells and cell-free wells were used as negative and positive controls, respectively, to calculate the inhibition rate of compound on cell proliferation. The concentration-inhibition curve was fitted using the "log(inhibitor) vs. normalized response -- Variable slope" equation in GraphPad Prism 8 software to obtain the IC50. [formula]
# [2] = test system: SW48 cells; test: Cell proliferation assay (CellTiter-Glo), SW48; assay type: cell-based; details: Homo sapiens, SW48, 120 h, SW-48, 5 days incubation
# Procedure: as §1, §2
# [3] = test system: LoVo; test: Cell proliferation assay (CellTiter-Glo), LoVo; assay type: cell-based; details: Homo sapiens, 120 h, 5 days incubation
# Procedure: as §1, §2
# [4] = test system: SW620 cells; test: Cell proliferation assay (CellTiter-Glo), SW620; assay type: cell-based; details: Homo sapiens, 120 h, SW-620 (MSS), 5 days incubation
# Procedure: as §1, §2
# [5] = target: T1, WRN enzyme (Homo sapiens, UniProt Q14191); test: biochemical
# T1 construct: host or cells: eukaryotic cells (not further specified)
# Procedure: The WRN enzyme used in the experiment has a His-TEV tag at the N-terminus and is expressed in eukaryotic cells with a purity of 90%. The assay kit (ADP-Glo™ Kinase Assay) was purchased from Promega (Cat. No. V9101), aliquoted, and then stored in the refrigerator at -40°C. This kit could quantitatively detect the amount of ADP generated in the reaction. WRN hydrolyzed ATP to produce ADP. The ADP-Glo reagent was added to deplete excess ATP in the reaction system, followed by the addition of Kinase Detection Reagent to convert the ADP produced by the reaction into ATP and produce chemiluminescence. The enzyme activity of WRN can be reflected by detecting the chemiluminescence signal using a microplate reader.
# Single-stranded DNA was annealed to form double-stranded DNA. 5× Annealing Buffer: 50 mM Tris pH 8.0, 100 mM NaCl. Annealing program: 95°C, 5 min.
# 2× WRN enzyme (1 nM) and 2× substrate (1 nM double-stranded DNA, 100 µM ATP) were prepared using a buffer (20 mM Bicine (pH 7.5), 10 mM KCl, 10 mM MgCl2, 0.005% BSG, 0.002% Tween 20, 1 mM TCEP). The test compound was dissolved in DMSO to 10 mM and was gradient-diluted using a 96-well V-bottom plate. First, 25 µL of 2× WRN enzyme and 0.5 µL of compound were added to a 96-well plate and incubated at room temperature for 30 min. Then, 25 µL of 2× substrate was added, and the reaction was carried out at room temperature for 60 min. 5 µL was taken from the reaction plate and transferred to a 384-well plate for detection. 5 µL of ADP-Glo reagent was added and incubated at room temperature for 60 min, followed by the addition of 10 µL of Kinase Detection Reagent and incubation at room temperature for 40 min. The chemiluminescence signal was detected using a microplate reader.
# [6] = read-out: WRN helicase activity (IC50 nM)
# T1 sequence (Q14191 whole entry): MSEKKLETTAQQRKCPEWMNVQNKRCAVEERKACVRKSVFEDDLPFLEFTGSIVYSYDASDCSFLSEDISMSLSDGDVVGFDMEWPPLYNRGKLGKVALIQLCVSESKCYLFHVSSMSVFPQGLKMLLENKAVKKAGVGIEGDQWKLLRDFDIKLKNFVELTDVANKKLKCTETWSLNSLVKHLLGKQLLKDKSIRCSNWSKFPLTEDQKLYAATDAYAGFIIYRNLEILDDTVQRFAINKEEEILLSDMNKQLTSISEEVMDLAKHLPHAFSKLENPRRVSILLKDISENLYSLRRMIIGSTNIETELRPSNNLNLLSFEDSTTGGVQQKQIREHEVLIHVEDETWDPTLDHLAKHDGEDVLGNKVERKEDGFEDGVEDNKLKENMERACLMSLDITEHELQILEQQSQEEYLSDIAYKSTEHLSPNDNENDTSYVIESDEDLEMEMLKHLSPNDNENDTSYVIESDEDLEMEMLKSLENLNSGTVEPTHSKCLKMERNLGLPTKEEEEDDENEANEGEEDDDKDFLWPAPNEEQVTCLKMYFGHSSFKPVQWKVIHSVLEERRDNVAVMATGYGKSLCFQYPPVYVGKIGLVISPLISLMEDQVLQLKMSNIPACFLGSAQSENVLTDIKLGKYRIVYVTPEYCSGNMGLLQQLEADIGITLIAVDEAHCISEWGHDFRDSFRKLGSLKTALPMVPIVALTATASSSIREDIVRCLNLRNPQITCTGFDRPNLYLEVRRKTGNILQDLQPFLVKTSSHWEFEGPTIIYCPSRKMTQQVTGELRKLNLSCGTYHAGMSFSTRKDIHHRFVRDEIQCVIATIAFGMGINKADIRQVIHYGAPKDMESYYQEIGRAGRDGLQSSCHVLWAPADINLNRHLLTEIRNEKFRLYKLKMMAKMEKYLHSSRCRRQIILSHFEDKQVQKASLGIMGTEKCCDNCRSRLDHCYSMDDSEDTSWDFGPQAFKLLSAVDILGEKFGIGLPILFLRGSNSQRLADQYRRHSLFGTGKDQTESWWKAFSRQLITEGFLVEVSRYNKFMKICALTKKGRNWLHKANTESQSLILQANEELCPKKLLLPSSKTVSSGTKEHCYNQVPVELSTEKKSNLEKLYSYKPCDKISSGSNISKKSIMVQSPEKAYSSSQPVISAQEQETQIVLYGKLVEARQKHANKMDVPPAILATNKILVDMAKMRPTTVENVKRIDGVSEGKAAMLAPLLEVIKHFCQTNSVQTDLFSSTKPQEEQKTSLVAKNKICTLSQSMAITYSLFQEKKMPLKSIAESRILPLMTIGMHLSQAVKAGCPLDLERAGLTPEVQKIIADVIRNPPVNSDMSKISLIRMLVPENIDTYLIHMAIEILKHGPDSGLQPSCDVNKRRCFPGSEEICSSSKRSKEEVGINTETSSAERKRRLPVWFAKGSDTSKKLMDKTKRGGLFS
"IC50 [5, 6] [nM]",SMILES,IC50 [1] [nM],IC50 [2] [nM],IC50 [3] [nM],IC50 [4] [nM],IC50 [5] [nM]
–,CCc1c(N2CCN(C(=O)c3ncnc(C)c3O)CC2)c(=O)c2nn(C3=CCOCC3)cc2n1CC(=O)Nc1ccc(C(F)(F)F)cc1Cl [Example 5],1580,943,2710,> 25000,–
–,CCc1c(N2CCN(C(=O)c3ncccc3O)CC2)c(=O)c2nn(C3=CCOCC3)cc2n1CC(=O)Nc1ccc(C(F)(F)F)cc1Cl [Example 6],–,324,–,> 25000,134
–,CCc1c(N2CCN(C(=O)c3ncnc(C)c3O)CC2)c(=O)c2nn(C3=CCOCC3)nc2n1CC(=O)Nc1ccc(C(F)(F)F)cc1C [Example 8],–,133,–,> 25000,118
94.9,CCc1c(N2CCN(C(=O)c3ncnc(C)c3O)CC2)c(=O)c2nn(C3=CCOCC3)nc2n1CC(=O)Nc1ccc(C(F)(F)F)cc1F [Example 9],–,–,–,–,–
–,CCc1c(C2=CCN(C(=O)c3ncnc(C)c3O)CC2)c(=O)c2cn(C3=CCOCC3)nc2n1CC(=O)Nc1ccc(C(F)(F)F)cc1Cl [Example 10],552,331,871,> 25000,238
65.3,CCc1c(N2CCN(C(=O)c3ncnc(C)c3O)CC2)c(=O)c2nn(C3=CCN(S(=O)(=O)C4CC4)CC3)cc2n1CC(=O)Nc1ccc(C(F)(F)F)cc1Cl [Example 11],–,–,–,–,–
–,CCc1c(N2CCN(C(=O)c3ncnc(C)c3O)CC2)c(=O)c2nn(C3=CCOCC3)cc2n1CC(=O)Nc1ccc(S(F)(F)(F)(F)F)cc1 [Example 12],–,317,–,> 25000,86
–,CCc1c(N2CCN(C(=O)c3ncnc(C)c3O)CC2)c(=O)c2nn(C3=CCOCC3)nc2n1CC(=O)Nc1ncc(C(F)(F)F)cc1Cl [Example 13],435,–,–,> 25000,104
–,CCc1c(N2CCN(C(=O)c3ncnc(C)c3O)CC2)c(=O)c2nn(C3=CCOCC3)nc2n1CC(=O)Nc1cc(Cl)c(C(F)(F)F)cc1C [Example 14],–,42.4,–,> 25000,30.8
–,CCc1c(N2CCN(C(=O)c3ncnc(C)c3O)CC2)c(=O)c2nn(C3=CCOCC3)nc2n1CC(=O)Nc1ccc2c(c1)CC2 [Example 16],–,148,–,> 25000,42.6
–,CCc1c(N2CCN(C(=O)c3ncnc(C)c3O)CC2)c(=O)c2nn(C3=CCOCC3)nc2n1CC(=O)Nc1ccc2c(c1)CCC2 [Example 17],–,126,–,> 25000,34.7
–,CCc1c(N2CCN(C(=O)c3ncncc3O)CC2)c(=O)c2nn(C3=CCOCC3)nc2n1CC(=O)Nc1ccc(C(F)(F)F)cc1Cl [Example 18],–,51.1,–,> 25000,64.3
–,CCc1c(N2CCN(C(=O)c3ncccc3O)CC2)c(=O)c2nn(C3=CCOCC3)nc2n1CC(=O)Nc1cc(F)c(C(F)(F)F)cc1Cl [Example 19],–,60.9,–,20700,44.3
–,CCc1c(N2CCN(C(=O)c3ncccc3O)CC2)c(=O)c2nn(C3=CCOCC3)nc2n1CC(=O)Nc1ccc(C(F)(F)F)cc1Cl [Example 20],–,33.8,–,23700,35.5
24.4,CCc1c(N2CCN(C(=O)c3ncnc(C)c3O)CC2)c(=O)c2nn(C3=CCOCC3)nc2n1CC(=O)Nc1ccc(S(F)(F)(F)(F)F)cc1 [Example 21],–,–,–,–,–
–,CCc1c(N2CCN(C(=O)c3ncnc(C)c3O)CC2)c(=O)c2nn(C3=CCOCC3)nc2n1CC(=O)Nc1cc(F)c(C(F)(F)F)cc1F [Example 23],–,102,–,> 25000,41.9
